The source of these data is ChEMBL document CHEMBL1268895, “Synthesis of exotic polycycles such as cyclooctatrienes and fenestrenes with differential pro-apoptotic activities on human TRAIL-resistant metastatic cell lines” (Bioorg Med Chem Lett, 2010).

The subject of one assay is SW-620. Briefly: Induction of apoptosis in TRAIL-resistant human SW620 cells assessed as pro-apoptotic cells at 50 uM after 24 hrs by annexin-V staining. In kind it is functional.
In assay [1] the test system is THP-1. Kind of assay: Induction of apoptosis in TRAIL-resistant human THP1 cells assessed as pro-apoptotic cells at 50 uM after 24 hrs by annexin-V staining. In kind it is functional.
Assay [2] has as its system THP-1. Kind of assay: Induction of apoptosis in TRAIL-resistant human THP1 cells after 24 hrs by annexin-V staining. The assay is classed as functional, cell-based. The note with it: THP-1, 24 h.
Assay [3] deals with THP-1. Kind of assay: Induction of apoptosis in TRAIL-resistant human THP1 cells assessed as inhibition of caspase-8 activity. In kind it is functional.

Take `CCCCC1(CCCC)O[C@H]2C=C(CO)[C@]3(O)[C@@H]4OC(C)(C)O[C@@]45CCC[C@@H]4[C@@H]1[C@@H]2[C@@]453`: the Activity is on record as 5% in the assay on SW-620 and 15% in the assay with THP-1 [1].
As to `CC1(C)O[C@@H]2[C@]3(CCC[C@@H]4[C@H]5CO[C@H]6C=C(CO)[C@@]2(O)[C@]43[C@@H]56)O1`, the Activity is recorded as 4% in the assay with SW-620 and 94% with THP-1 [1].
A word on the EC50: it is the concentration needed to bring the measured effect to its halfway point. As for `CC(C)CC(O)(CC(C)C)[C@@H]1/C=C\C=C(\CO)C2=C([C@H]3OC(C)(C)O[C@@H]23)[C@H]1c1ccccc1` (relative stereo), the results for the Activity in the assay with SW-620 and in the assay with THP-1 [1] were 66% and 97%, respectively. Moreover, the response in the assay on THP-1 [2] was half-maximal at 32.4 µM (EC50).
In the case of `CC1(C)O[C@H]2C3=C4[C@@H](CCCC[C@@]42O1)[C@H](C1(O)CCCC1)/C=C\C=C/3CO`, the Activity came to 22% in the assay with SW-620 and 2% in the assay on THP-1 [1].
For `CCCCCC[C@@H]1/C=C\C=C(\CO)C2=C3[C@H]1CCCC[C@@]31OC(C)(C)O[C@@H]21`, the Activity with SW-620 was determined as 70%; with THP-1 [1] it was 20%. For the same compound, the “inhibition (INH)” value in the assay on THP-1 [3] is given as 90%.
Regarding `CC1(C)O[C@H]2C3=C4[C@@H](CCCC[C@@]42O1)[C@H](C1(O)CCCCC1)/C=C\C=C/3CO`, the Activity in the assay with SW-620 came to 17%; with THP-1 [1], 2%.
As for `CC1=C(O)C(=O)C=C2C1=CC=C1[C@@]2(C)CC[C@@]2(C)[C@@H]3C[C@](C)(C(=O)O)CC[C@]3(C)CC[C@]12C` [CELASTROL], the Activity with SW-620 and in the assay on THP-1 [1] was 99% in each case. This compound also showed a concentration for a half-maximal effect (EC50) with THP-1 [2] of 15 µM. Also, the “inhibition (INH)” value in the assay with THP-1 [3] is given as 90%.
With `CC1(C)O[C@H]2C3=C4[C@@H](CCCC[C@@]42O1)[C@H](CCc1ccccc1)/C=C\C=C/3CO`, the Activity in the assay with SW-620 was 23%; with THP-1 [1], 10%.
For `CC1(C)O[C@@H]2C3=C(/C(CO)=C\C=C/[C@@H](C4(O)CCCCC4)[C@@H]3c3ccccc3)[C@@H]2O1`, in that order: 10% and 3%.
For `CC1(C)O[C@@H]2C3=C(/C(CO)=C\C=C/[C@@H](C4(O)CCCC4)[C@@H]3c3ccccc3)[C@@H]2O1`, in that order: 12% and 3%.
For `CCCCCC1(CCCCC)O[C@H]2C=C(CO)[C@]3(O)[C@@H]4OC(C)(C)O[C@@]45CCC[C@@H]4[C@@H]1[C@@H]2[C@@]453`, in that order: 5% and 5%.
On to `CCCCCC[C@@H]1/C=C\C=C(\CO)C2=C([C@H]3OC(C)(C)O[C@@H]23)[C@H]1c1ccccc1`, for which the values for the Activity in the assay with SW-620 and in the assay on THP-1 [1] were 70% and 97%, respectively. For the same compound, in the assay on THP-1 [2], the EC50 amounted to 52.9 µM.
On to `CC1(C)O[C@H]2C3=C4[C@@H](CCC[C@@]42O1)[C@H](C(C)(C)O)/C=C\C=C/3CO`, for which the figures for the Activity in the assay on SW-620 and in the assay with THP-1 [1] were 12% and 2%, respectively.
`CC1(C)O[C@@H]2C3=C(/C(CO)=C\C=C/[C@@H](CCc4ccccc4)[C@@H]3c3ccccc3)[C@@H]2O1` (relative stereo): the Activity in the assay with SW-620 amounted to 58%; in the assay on THP-1 [1] it was 98%. For the same compound, the midpoint of the response in the assay on THP-1 [2], the EC50, lay at 49.3 µM.
As to `CC(C)CC1(CC(C)C)O[C@H]2C=C(CO)[C@]3(O)[C@@H]4OC(C)(C)O[C@@]45CCC[C@@H]4[C@@H]1[C@@H]2[C@@]453`, the Activity in the assay with SW-620 is reported as 13%; in the assay on THP-1 [1] it was 83%.
For `CC1(C)O[C@@H]2C3=C(/C(CO)=C\C=C/[C@@H](C(C)(C)O)[C@@H]3c3ccccc3)[C@@H]2O1` (relative stereo), in that order: 15% and 2%.
For `CC1(C)O[C@H]2C3=C4[C@@H](CCCC[C@@]42O1)[C@H](C(C)(C)O)/C=C\C=C/3CO`, in that order: 16% and 2%.
Consider `CC(C)CC(O)(CC(C)C)[C@@H]1/C=C\C=C(\CO)C2=C3[C@H]1CCCC[C@@]31OC(C)(C)O[C@@H]21`, for which the Activity is on record as 68% in the assay with SW-620 and 36% in the assay with THP-1 [1]. Also, the “inhibition (INH)” value in the assay on THP-1 [3] was found to be 90%.
In the case of `CC1(C)O[C@@H]2[C@]3(CCC[C@@H]4[C@@H]5[C@H]6[C@H](C=C(CO)[C@@]2(O)[C@]643)OC5(C)C)O1`, the values for the Activity with SW-620 and in the assay on THP-1 [1] were 4% and 29%, respectively.
